According to US8273748B2, “Amino alcohol derivative and immunosuppresive agent having same as an active ingredient” (Kyorin Pharmaceutical Co., Ltd., priority 2006, dated 2012):
Values belong to the compound of their own block, whether it stands above or below them.

Columns and labels:
Type in all cases: in vivo
[1] = test system: white blood cells in mouse peripheral blood; experiment: Activity on total number of white blood cells in mouse peripheral blood; settings: BALB/c mice, blood collected 6 hours after administration
Protocol: The test compounds were dissolved or suspended in DMSO, and then a physiological saline solution was added to make dosing solutions (DMSO final concentration 1%). If the dosing solutions were not in a dissolved or a uniform suspended state, Tween 80 was added so that the final concentration thereof was 0.01 to 0.1%. The resultant solutions were then sonicated to form a fine suspension. These test compound solutions were intraperitoneally administered in respective amounts of 0.1 mL or 0.2 mL per 10 g of body weight to BALB/cCrSlc male mice (8 to 14 weeks old, Japan SLC). For the control group, only a solvent having the same composition as that used in the preparation of the test compounds was administered in the same manner. Six hours after administration of the test compound solutions, blood was collected from the postcava under ether anesthesia (10 μL of 10% EDTA was added as an anticoagulant). Measurement of the total number of white blood cells was carried out using the automated blood cell counting apparatus Sysmex F-820 (Sysmex). Here, compounds having an inhibition ratio of 60% or more were marked as “+++”, compounds having an inhibition ratio of less than 60% but more than or equal to 50% were marked as “++”, and compounds having an inhibition ratio of less than 50% but more than or equal to 40% were marked as “+”. Furthermore, the inhibition ratios are the results from a dose of 0.3 mg/kg (“[ ]” are the results from 3 mg/kg).

[2] = test system: mouse host-versus-graft rejection reaction; experiment: Inhibition activity on mouse host-versus-graft rejection reaction (popliteal lymph node weight); settings: ip, inhibition of popliteal lymph node weight increase, C3H/HeN mice, intraperitoneal once per day, 4 times
Protocol: Experiment example 2 was carried out by referring to the methods described in Transplantation, Vol. 55, No. 3, pp. 578 to 591, 1993. The spleens from BALB/c male mice which were6 to 23 weeks old (Japan SLC) were collected. The spleens were extracted in RPMI-1640 medium (Sigma), and then turned into a spleen cell suspension by grinding them with 2 glass slides and then passing the ground matter through a strainer (70 microns, Falcon). The spleen cell suspensions were centrifuged, and the supernatants were removed. Then, an ammonium chloride-tris isotonic buffer solution was added, and the red blood cells were hemolyzed. After centrifuging and washing 3 times with RPMI-1640 medium, the cells were suspended in RPMI-1640 medium. Mitomycin C (Kyowa Hakko) was added thereto so that the final concentration was 25 μg/mL, and the cells were incubated for 30 minutes at 37° C. under 5% CO2. After centrifuging and washing 3 times with RPMI-1640 medium, the cells were suspended in RPMI-1640 medium so that the concentration was 2.5×10^8 cells/mL. These cells were used as a stimulator cell suspension. 20 μL (5×10^6 cells/mouse) of the stimulator cell suspension was injected subcutaneously into the right hind-foodpad of C3H/HeN male mice which were6 to 11 weeks old (Clea Japan) using a 27G needle and a microsyringe (Hamilton). For the normal control group, RPMI-1640 medium only was injected. After 4 days, the right popliteal lymph nodes were extracted, and their weight was measured using Mettler AT201 electronic scales (Mettler Toledo). From the day of the stimulator cell suspensions being injected to 3 days thereafter, the test compounds were intraperitoneally administered on consecutive days once per day, for a total of 4 times. For the control group, only a solvent having the same composition as that used in the preparation of the test compounds was administered in the same manner. As the solvent, basically a physiological saline containing 0.5% DMSO was used (suitably adjusted according to the solubility of the compound). The inhibition ratio was calculated using the following equation. [formula]

[3] = test system: allogenic skin graft for rats; experiment: Rat skin graft model (allogenic skin graft survival); settings: for MST: oral administration once a day
Protocol: Using a rat skin graft model, activity on the rejection reaction was investigated.
Skin from the abdomen of a LEW/CrlCrlj rat serving as the donor (male, 5 weeks old, Japan Charles River) was peeled away, and the panniculus carnosus muscule layer under the skin was removed. Then, a 1.8 cm×1.8 cm skin specimen (graft) was prepared. Next, a F344/DuCrlCrlj rat serving as the recipient (male, 5 weeks old, Japan Charles River) was anesthetized by intraperitoneal administration of 40 mg/kg of sodium pentobarbital (nembutal injection, Dainippon Sumitomo Pharma). The hair of the back of the rat was shorn off by electric clippers, and then the remaining hair was further shaved off using a razor. Then, a 1.8 cm×1.8 cm mark was made on the back of the rat, and a shallow cut was made along the mark with a scalpel. Next, the skin was peeled away along this cut by tweezers to produce a graft bed. Several drops of sterile physiological saline solution (Otsuka normal saline, Otsuka Pharmaceutical) were dropped onto the graft bed, and then wiped away with gauze. Several drops of penicillin (crystalline penicillin GpotassiumMeiji, Meiji Seika) were then dropped thereon. Next, the graft was placed on the graft bed. After absorbing excess moisture with sterile gauze, a first-aid bandaid was stuck over the graft. Furthermore, an adhesive bandage was wrapped around the trunk of the rat. On the third day after the operation, a new adhesive bandage was wrapped thereover. On the fifth day after the operation, the bandaid and the bandages were cut open with scissors and removed. Observation of the graft was carried out on consecutive days from when the bandaid was removed (from the fifth day). A determination of graft rejection was made when 90% or more of the graft had died and tuned brown. The number of days from grafting until rejection was confirmed was taken as the survival period. The mean value of the survival period for each group was calculated as the mean survival time (MST). Investigation was carried out with 5 animals per group. All of the rats were housed in individual cages. The test compounds were dissolved in ultra-pure water, and were orally administered once a day, on consecutive days, from the graft day. For the control group, ultra-pure water was administered in the same manner.

[4] = Effect on rat lung weight; settings: Wistar rats, lungs extracted 6 hours later
Protocol: Crlj:Wistar rats (male) 5 to 8 weeks old were used in the experiment. An aqueous solution of the test compounds was respectively orally administered in an amount of 0.5 mL per 100 g of rat body weight. The lungs were extracted 6 hours later, and the lung weight was measured.

[5] = dose 3 mg/kg (values in [ ]) intraperitoneal

Compound: CCC[C@](N)(CO)CCCc1ccc(Sc2cccc(C(F)(F)F)c2)cc1Cl.Cl [Example 36, (R)-2-amino-5-[2-chloro-4-(3-trifluoromethylphenylthio)phenyl]-2-propylpentan-1-ol hydrochloride]
- Inhibition Ratio [1, 5]: [++] (inhibition ratio of less than 60% but more than or equal to 50%)
- ED50 [2]: 0.1 to 1 mg/kg

Compound: C[C@](N)(CO)CCCc1ccc(Sc2cccc(C(F)(F)F)c2)cc1Cl.Cl [Example 27, (R)-2-amino-5-[2-chloro-4-(3-trifluoromethylphenylthio)phenyl]-2-methylpentan-1-ol hydrochloride]
- Inhibition Ratio ([1]; dose 0.3 mg/kg intraperitoneal): + (inhibition ratio of less than 50% but more than or equal to 40%)
- ED50 [2]: < 0.1 mg/kg
- MST ([3]; 3 mg/kg): 11.8 days
- MST ([3]; 10 mg/kg): 14 days
- MST ([3]; 30 mg/kg): 20.4< days
- Survival period extension effect of the graft ([3]; individual administration, oral): survival period extension effect of the graft was found
- Effect on lung weight ([4]; up to a dose of 100 mg/kg oral): no effects whatsoever on lung weight

Compound: C[C@](N)(CO)CCc1ccc(Sc2cccc(C(F)(F)F)c2)cc1Cl.Cl [Example 29, (R)-2-amino-4-[2-chloro-4-(3-trifluoromethylphenylthio)phenyl]-2-methylbutan-1-ol hydrochloride]
- Inhibition Ratio ([1]; dose 0.3 mg/kg intraperitoneal): +++ (inhibition ratio of 60% or more)
- ED50 [2]: 0.1 to 1 mg/kg

Compound: C[C@](N)(CO)CCc1ccc(Oc2cccc(C(F)(F)F)c2)cc1Cl.Cl [Example 28, (R)-2-amino-4-[2-chloro-4-(3-trifluoromethylphenoxy)phenyl]-2-methylbutan-1-ol hydrochloride]
- Inhibition Ratio ([1]; dose 0.3 mg/kg intraperitoneal): ++ (inhibition ratio of less than 60% but more than or equal to 50%)
- ED50 [2]: 1 to 10 mg/kg

Compound: C[C@](N)(CO)CCCc1ccc(Sc2cccc(C(F)(F)F)c2)cc1F.Cl [Example 35, (R)-2-amino-5-[2-fluoro-4-(3-trifluoromethylphenylthio)phenyl]-2-methylpentan-1-ol hydrochloride]
- ED50 [2]: 0.1 to 1 mg/kg

Compound: CCc1cccc(Sc2ccc(CCC[C@@](C)(N)CO)c(Cl)c2)c1.Cl [Example 32, (R)-2-amino-5-[2-chloro-4-(3-ethylphenylthio)phenyl]-2-methylpentan-1-ol hydrochloride]
- ED50 [2]: 0.1 to 1 mg/kg

- Effect on lung weight ([4]; up to a dose of 30 mg/kg oral): no effects whatsoever on lung weight
Compound: C[C@](N)(CO)CCCc1ccc(Oc2cccc(C(F)(F)F)c2)cc1Cl.Cl [Example 26, (R)-2-amino-5-[2-chloro-4-(3-trifluoromethylphenoxy)phenyl]-2-methylpentan-1-ol hydrochloride]
- Inhibition Ratio [1, 5]: [+] (inhibition ratio of less than 50% but more than or equal to 40%)
- ED50 [2]: 0.1 to 1 mg/kg
